Reference: patent US20070275923A1, “CATIONIC PEPTIDES FOR siRNA [sequence] [sequence]” (NASTECH PHARMACEUTICAL COMPANY INC., priority 2006, published 2007)
Non-standard residues stand in square brackets, D forms with d. Residues, ends and D or L forms follow the SMILES beside them. Mal = not defined here

Assays:
[1] = test system: Mouse tail fibroblast (MTF) cells; test: siRNA cell-uptake and MFI measured by FACS after peptide-mediated transfection of labeled siRNA; format: cell-based; details: for % Cell-Uptake: % of total cells with intracellular labeled siRNA; for intracellular delivery of siRNA (verbal conclusion from cell-uptake and cell viability): conclusion drawn from Table 3; for MFI: relative value
Method: SiRNA cell uptake was measured by FACS.
For the instant example, cell-uptake, mean fluorescent intensity (MFI) and cell viability was measured for each peptide. siRNA cell-uptake was measured by the presence of intracellular labeled siRNA. The cell-uptake assay determined the percentage of cells that contain the labeled siRNA. Mean Fluorescence Intensity (MFI) was used to determine the relative mean quantity of labeled siRNA that entered the cells.
A non-transfection, siRNA alone, control was also performed.
Within Table 3, “ND” means no data.

[2] = test system: Mouse tail fibroblast (MTF) cells; test: in vitro; details: 200 nM siRNA, 100% represents 100% viability
Method: (§1) Mouse tail fibroblast (MTF) cells were derived from the tails of C57BL/6J mice. Tails were removed, immersed in 70% ethanol and then cut into small sections with a razor blade. The sections were washed three times with PBS and then incubated in a shaker at 37° C. with 0.5 mg/mL collagenase, 100 units/mL penicillin and 100 μg/mL streptomycin to disrupt tissue. Tail sections were then cultured in complete media (Dulbecco's Modified […] Medium with 20% FBS, 1 mM sodium pyruvate, nonessential amino acids and 100 units/mL penicillin and 100 μg/mL streptomycin) until cells were established. Cells were cultured at 37° C., 5% CO2 in complete media as outlined above.
(§2) Cells were be plated per well in a microtiter plate the day before transfection in complete media. The siRNA was be labeled, for example with a FAM, Alexa488, Alexa647 or Cy-5 conjugate. The cationic polymer peptide and siRNA were mixed in the microtiter plate complex with cells previously with OptiMEM. 7-AAD was added to each transfection to measure cell viability. Cells were transfected for three hours at 37° C., 5% CO2. The transfection mixture was removed and the cells were washed with TE buffer for about 10 minutes at 37° C., 5% CO2. Transfected cells were transferred to a V bottom plate and centrifuged. The TE buffer was removed and the transfected cells were resuspended in fluorescence activated cell sorting (FACS) buffer.
(§3) A non-transfection, siRNA alone, control was also performed. The peptide PN183 served herein as a positive cell-uptake control.
(§4) Cell-uptake is expressed as a percentage of the total cells with intracellular labeled siRNA. Cell Viability is also expressed as a percentage where 100% represents 100% viability. The MFI value is a relative value with a higher MFI value indicating a greater amount of labeled siRNA entered the cell. Within Table 3, “ND” means no data.

in vitro = details: C57BL/6J, mouse, mouse tail fibroblast (MTF) cells
Method: as §1, §2, §3, §4

[3] = peptide concentration 1 μM, 200 nM labeled siRNA
[4] = peptide concentration 10 μM, 200 nM labeled siRNA
[5] = peptide concentration 100 μM, 200 nM labeled siRNA
[6] = peptide concentration 1 μM, 200 nM labeled siRNA, higher = more labeled siRNA entered the cell
[7] = peptide concentration 10 μM, 200 nM labeled siRNA, higher = more labeled siRNA entered the cell
[8] = peptide concentration 100 μM, 200 nM labeled siRNA, higher = more labeled siRNA entered the cell

For “PEG (2 KDa)-Mal-(Lys)20-amide ({PEG 2 kDa-Mal}-KKKKKKKKKKKKKKKKKKKK-NH2; reading uncertain) [PN926]”, the “% Cell-Uptake” value [1, 3] was 0.9%, the “% Cell-Uptake” value [1, 4] was 1.4% and the “% Cell-Uptake” value [1, 5] was 1.2%. For the same compound, the “% Cell Viability” value ([2]; peptide concentration 1 μM) was 97.9%, the “% Cell Viability” value ([2]; peptide concentration 10 μM) was 98.3% and the “% Cell Viability” value ([2]; peptide concentration 100 μM) was 98.3%.
In the case of “PEG (2 KDa)-Mal-(Lys-His)15-amide ({PEG 2 kDa-Mal}-KHKHKHKHKHKHKHKHKHKHKHKHKHKHKH-NH2; reading uncertain) [PN936]”, the “intracellular delivery of siRNA (verbal conclusion from cell-uptake and cell viability)” value (shortened to “intracellular delivery of siRNA”) [1] is reported as “effective intracellular delivery of siRNA without negatively impacting cell viability”, the “% Cell-Uptake” value [1, 3] is reported as 37.7% and the MFI [1, 6] is reported as 2.66. The “% Cell-Uptake” value [1, 4] was 55.3%, the MFI [1, 7] was 5.86 and the “% Cell-Uptake” value [1, 5] was 25.9%. For the same compound, the “% Cell Viability” value ([2]; peptide concentration 1 μM) was 97.5%, the “% Cell Viability” value ([2]; peptide concentration 10 μM) was 98.1% and the “% Cell Viability” value ([2]; peptide concentration 100 μM) was 28.7%.
In the case of PEG (10 KDa)-Mal-(Lys)25-amide [PN927], the “% Cell-Uptake” value [1, 3] is reported as 1.6%, the “% Cell-Uptake” value [1, 4] is reported as 0.8% and the “% Cell-Uptake” value [1, 5] is reported as 0.7%. For the same compound, the “% Cell Viability” value ([2]; peptide concentration 1 μM) was 95.6%, the “% Cell Viability” value ([2]; peptide concentration 10 μM) was 97% and the “% Cell Viability” value ([2]; peptide concentration 100 μM) was 97.3%.
With “PEG (2 KDa)-Mal-(Lys-His)10-amide ({PEG 2 kDa-Mal}-KHKHKHKHKHKHKHKHKHKH-NH2; reading uncertain) [PN939]” the “intracellular delivery of siRNA” value [1] was “effective intracellular delivery of siRNA without negatively impacting cell viability”, the “% Cell-Uptake” value [1, 3] was 66% and the MFI [1, 6] was 3.3. For the same compound, the “% Cell-Uptake” value [1, 4] was 97%, the MFI [1, 7] was 35.1 and the “% Cell-Uptake” value [1, 5] was 97.3%. For the same compound, the MFI [1, 8] was 3.33, the “% Cell Viability” value ([2]; peptide concentration 1 μM) was 98.6% and the “% Cell Viability” value ([2]; peptide concentration 10 μM) was 99.7%. The “% Cell Viability” value ([2]; peptide concentration 100 μM) was 99.1%.
For `N=C(N)NCCC[C@@H](N)C(=O)N[C@@H](CCCNC(=N)N)C(=O)N[C@H](CCCNC(=N)N)C(=O)N[C@@H](CCCNC(=N)N)C(=O)N[C@H](CCCNC(=N)N)C(=O)N[C@@H](CCCNC(=N)N)C(=O)N[C@H](CCCNC(=N)N)C(=O)N[C@@H](CCCNC(=N)N)C(=O)N[C@H](CCCNC(=N)N)C(=O)N[C@@H](CCCNC(=N)N)C(=O)N[C@H](CCCNC(=N)N)C(=O)N[C@@H](CCCNC(=N)N)C(=O)N[C@H](CCCNC(=N)N)C(=O)N[C@@H](CCCNC(=N)N)C(=O)N[C@H](CCCNC(=N)N)C(=O)N[C@@H](CCCNC(=N)N)C(=O)N[C@H](CCCNC(=N)N)C(=O)N[C@@H](CCCNC(=N)N)C(=O)N[C@H](CCCNC(=N)N)C(=O)N[C@@H](CCCNC(=N)N)C(N)=O` [PN912, NH2-(Xaa-Arg)10-amide] (H-[dR]R[dR]R[dR]R[dR]R[dR]R[dR]R[dR]R[dR]R[dR]R[dR]R-NH2), the “intracellular delivery of siRNA” value [1] was “effective intracellular delivery of siRNA without negatively impacting cell viability”, the “% Cell-Uptake” value [1, 3] was 61.2% and the MFI [1, 6] was 4.32. The “% Cell-Uptake” value [1, 4] was 73.3%, the MFI [1, 7] was 4.72 and the “% Cell-Uptake” value [1, 5] was 86.2%. It also gave an MFI [1, 8] of 5.41, a viability at 3 h, 1 µM (in vitro) of 96.9% and a viability at 3 h, 10 µM (in vitro) of 96.1%. It also gave a viability at 3 h, 100 µM (in vitro) of 90%.
For “PEG (10 KDa)-Mal-(Lys)20-amide ({PEG 10 kDa-Mal}-KKKKKKKKKKKKKKKKKKKK-NH2; reading uncertain) [PN928]”, the “% Cell-Uptake” value [1, 3] was 3.9%, the “% Cell-Uptake” value [1, 4] was 2.3% and the “% Cell-Uptake” value [1, 5] was 3.2%. The “% Cell Viability” value ([2]; peptide concentration 1 μM) was 97.3%, the “% Cell Viability” value ([2]; peptide concentration 10 μM) was 98% and the “% Cell Viability” value ([2]; peptide concentration 100 μM) was 98.2%.
With “PEG (10 KDa)-Mal-(Lys-His)10-amide ({PEG 10 kDa-Mal}-KHKHKHKHKHKHKHKHKHKH-NH2; reading uncertain) [PN940]” the “intracellular delivery of siRNA” value [1] was “effective intracellular delivery of siRNA without negatively impacting cell viability”, the “% Cell-Uptake” value [1, 3] was 69.9% and the MFI [1, 6] was 4.81. The “% Cell-Uptake” value [1, 4] was 70.6%, the MFI [1, 7] was 2.54 and the “% Cell Viability” value ([2]; peptide concentration 1 μM) was 99.1%. The “% Cell Viability” value ([2]; peptide concentration 10 μM) was 98.4%.
With “PEG (10 KDa)-Mal-(Lys)15-amide ({PEG 10 kDa-Mal}-KKKKKKKKKKKKKKK-NH2; reading uncertain; also: printed as PEG (10 KDa)-Mal-(Lys)15-amide) [PN931]” the “% Cell-Uptake” value [1, 3] was 0.6%, the “% Cell-Uptake” value [1, 4] was 0.7% and the “% Cell-Uptake” value [1, 5] was 0.5%. For the same compound, the “% Cell Viability” value ([2]; peptide concentration 1 μM) was 97%, the “% Cell Viability” value ([2]; peptide concentration 10 μM) was 97.7% and the “% Cell Viability” value ([2]; peptide concentration 100 μM) was 98.4%.
With “PEG (10 KDa)-Mal-(Lys)10-amide ({PEG 10 kDa-Mal}-KKKKKKKKKK-NH2; reading uncertain; also: printed as PEG (10 KDa)-Mal-(Lys)10-amide) [PN934]” the “% Cell-Uptake” value [1, 3] was 0.2%, the “% Cell-Uptake” value [1, 4] was 1.1% and the “% Cell-Uptake” value [1, 5] was 0.3%. For the same compound, the “% Cell Viability” value ([2]; peptide concentration 1 μM) was 98.3%, the “% Cell Viability” value ([2]; peptide concentration 10 μM) was 96.2% and the “% Cell Viability” value ([2]; peptide concentration 100 μM) was 97.4%.
With PEG (2 KDa)-Mal-(Lys)25-amide [PN925] the “% Cell-Uptake” value [1, 3] was 5.2%, the “% Cell-Uptake” value [1, 4] was 2.9% and the “% Cell-Uptake” value [1, 5] was 2.2%. The “% Cell Viability” value ([2]; peptide concentration 1 μM) was 96.6%, the “% Cell Viability” value ([2]; peptide concentration 10 μM) was 97.8% and the “% Cell Viability” value ([2]; peptide concentration 100 μM) was 95.8%.
For “PEG (2 KDa)-Mal-(Lys)15-amide ({PEG 2 kDa-Mal}-KKKKKKKKKKKKKKK-NH2; reading uncertain; also: printed as PEG (2 KDa)-Mal-(Lys)15-amide) [PN930]”, the “% Cell-Uptake” value [1, 3] was 0.2%, the “% Cell-Uptake” value [1, 4] was 1.5% and the “% Cell-Uptake” value [1, 5] was 0.8%. For the same compound, the “% Cell Viability” value ([2]; peptide concentration 1 μM) was 97.9%, the “% Cell Viability” value ([2]; peptide concentration 10 μM) was 97.2% and the “% Cell Viability” value ([2]; peptide concentration 100 μM) was 97.8%.
With “H-KETWWETWWTEWSQPGRKKRRQRRRPPQ-NH2 [PN183, reference compound]” the percent cell-uptake ([1]; concentration not given) was “approximately 59%”, the MFI ([1]; concentration not given) was ~11 and the “% Cell-Uptake” value [1, 3] was 9.3%. For the same compound, the MFI [1, 6] was 3.61, the “% Cell-Uptake” value [1, 4] was 47.4% and the MFI [1, 7] was 3.77. For the same compound, the “% Cell-Uptake” value [1, 5] was 58.9%, the MFI [1, 8] was 10.5 and the viability at 3 h, 1 µM (in vitro) was 96%. For the same compound, the viability at 3 h, 10 µM (in vitro) was 96.8% and the viability at 3 h, 100 µM (in vitro) was 76.7%.
In the case of “PEG (10 KDa)-Mal-Trp-(Lys)30-amide (WKKKKKKKKKKKKKKKKKKKKKKKKKKKKKK; PEG 10 kDa maleimide; C-terminal amide) [PN986]”, the “% Cell-Uptake” value [1, 3] is reported as 0.6%, the “% Cell-Uptake” value [1, 4] is reported as 0.8% and the “% Cell-Uptake” value [1, 5] is reported as 2.5%. The “% Cell Viability” value ([2]; peptide concentration 1 μM) was 97.4%, the “% Cell Viability” value ([2]; peptide concentration 10 μM) was 97.2% and the “% Cell Viability” value ([2]; peptide concentration 100 μM) was 93.6%.
In the case of “PEG (2 KDa)-Mal-(Lys)10-amide ({PEG 2 kDa-Mal}-KKKKKKKKKK-NH2; reading uncertain; also: printed as PEG (2 KDa)-Mal-(Lys)10-amide) [PN933]”, the “% Cell-Uptake” value [1, 3] is reported as 0.3%, the “% Cell-Uptake” value [1, 4] is reported as 0.5% and the “% Cell-Uptake” value [1, 5] is reported as 0.2%. The “% Cell Viability” value ([2]; peptide concentration 1 μM) was 97.7%, the “% Cell Viability” value ([2]; peptide concentration 10 μM) was 98% and the “% Cell Viability” value ([2]; peptide concentration 100 μM) was 98%.
With “PEG (10 KDa)-Mal-(Lys-His)15-amide ({PEG 10 kDa-Mal}-KHKHKHKHKHKHKHKHKHKHKHKHKHKHKH-NH2; reading uncertain) [PN937]” the “intracellular delivery of siRNA” value [1] was “effective intracellular delivery of siRNA without negatively impacting cell viability”, the “% Cell-Uptake” value [1, 3] was 54.7% and the MFI [1, 6] was 3.18. The “% Cell-Uptake” value [1, 4] was 92.6%, the MFI [1, 7] was 6.41 and the “% Cell Viability” value ([2]; peptide concentration 1 μM) was 99%. For the same compound, the “% Cell Viability” value ([2]; peptide concentration 10 μM) was 99.4%.
